# From ChEMBL document CHEMBL1201862, “PubChem BioAssay data set” (2004)
#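 Each compound was tested at five concentrations against cells in 96-well plates for 48 hours. GI50 is the concentration that inhibits growth by half.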 Active and inactive are the calls of the source. Cut-off read from the data, not from the text of the source: active = GI50 up to about 1.1 µM and inactive = higher.
# Legend:
# Test in all cases: DTP human tumour cell line panel, 48 h
# UO-31 = system: UO-31
# A549 = system: A549
# UACC-62 = system: UACC-62
# BT-549 = system: BT-549
# MDA-MB-435 = system: MDA-MB-435
# EKVX = system: EKVX
# MDA-N = system: MDA-N
# OVCAR-3 = system: OVCAR-3
# SK-OV-3 = system: SK-OV-3
# HOP-62 = system: HOP-62
# IGROV-1 = system: IGROV-1
# NCI-H226 = system: NCI-H226
# COLO 205 = system: COLO 205
# M14 = system: M14
# Malme-3M = system: Malme-3M
# TK-10 = system: TK-10
# SK-MEL-5 = system: SK-MEL-5
# SR = system: SR
# T47D = system: T47D
# HL-60 = system: HL-60
Compound,GI50 (UO-31),GI50 (A549),GI50 (UACC-62),GI50 (BT-549),GI50 (MDA-MB-435),GI50 (EKVX),GI50 (MDA-N),GI50 (OVCAR-3),GI50 (SK-OV-3),GI50 (HOP-62),GI50 (IGROV-1),GI50 (NCI-H226),GI50 (COLO 205),GI50 (M14),GI50 (Malme-3M),GI50 (TK-10),GI50 (SK-MEL-5),GI50 (SR),GI50 (T47D),GI50 (HL-60)
O=c1sc2c(s1)SSSSS2,> 50 µM (inactive),> 50 µM (inactive),35.2 µM (inactive),> 50 µM (inactive),> 50 µM (inactive),> 50 µM (inactive),> 50 µM (inactive),41.9 µM (inactive),> 50 µM (inactive),> 50 µM (inactive),> 50 µM (inactive),> 50 µM (inactive),> 50 µM (inactive),> 50 µM (inactive),> 50 µM (inactive),> 50 µM (inactive),> 50 µM (inactive),> 50 µM (inactive),> 50 µM (inactive),–
COc1ccc(C2(CC(C)C)CCN(S(=O)(=O)c3ccc(C)cc3)C2)cc1OC (configuration not stated),41.6 µM (inactive),27.2 µM (inactive),43.9 µM (inactive),71.1 µM (inactive),21.8 µM (inactive),76.9 µM (inactive),70.8 µM (inactive),18.9 µM (inactive),36.9 µM (inactive),45.5 µM (inactive),50.2 µM (inactive),22.5 µM (inactive),25.8 µM (inactive),34.8 µM (inactive),–,63.5 µM (inactive),13.6 µM (inactive),1.11 µM (active),14.4 µM (inactive),–
COC(=O)CSSCc1ccc([N+](=O)[O-])cc1,10.6 µM (inactive),25.5 µM (inactive),15.8 µM (inactive),19.1 µM (inactive),13.9 µM (inactive),28.2 µM (inactive),14.7 µM (inactive),18.5 µM (inactive),20.8 µM (inactive),20.1 µM (inactive),3.08 µM (inactive),–,18.7 µM (inactive),19.8 µM (inactive),29.6 µM (inactive),16.2 µM (inactive),17.7 µM (inactive),12 µM (inactive),24.1 µM (inactive),21.1 µM (inactive)
COc1cccc2c3ccccc3c3nc[nH]c3c12,41.7 µM (inactive),36.2 µM (inactive),22.8 µM (inactive),> 71.1 µM (inactive),31.6 µM (inactive),> 48.3 µM (inactive),32.1 µM (inactive),> 100 µM (inactive),> 62.1 µM (inactive),54.3 µM (inactive),41.4 µM (inactive),37.8 µM (inactive),17.9 µM (inactive),28.6 µM (inactive),36.1 µM (inactive),26.1 µM (inactive),16.7 µM (inactive),14.6 µM (inactive),> 50.4 µM (inactive),–
Nc1ccc(/N=N/c2c(S(=O)(=O)O)cc3ccccc3c2S(=O)(=O)O)cc1,> 100 µM (inactive),> 100 µM (inactive),> 100 µM (inactive),> 100 µM (inactive),> 100 µM (inactive),> 100 µM (inactive),> 100 µM (inactive),> 100 µM (inactive),–,> 100 µM (inactive),> 100 µM (inactive),> 100 µM (inactive),–,> 100 µM (inactive),> 100 µM (inactive),> 100 µM (inactive),> 100 µM (inactive),> 100 µM (inactive),> 100 µM (inactive),–
COC(=O)NC1C(C)OC(OC2C/C=C(/C)C3C=CC4C(OC5CC(OC6CC(OC7CC(O)C(O)C(C)O7)C(OC7CC(O)C(OC)C(C)O7)C(C)O6)C(O)C(C)O5)C(C)CC(C)C4C3(C)C(=O)C3=C(O)C4(CC(C)C(CO)=CC4/C=C\2C)OC3=O)CC1(C)[N+](=O)[O-] (configuration not stated),22.9 µM (inactive),5.04 µM (inactive),4.14 µM (inactive),20.8 µM (inactive),9.64 µM (inactive),14.4 µM (inactive),14 µM (inactive),–,–,3.38 µM (inactive),10.4 µM (inactive),–,11.3 µM (inactive),17.1 µM (inactive),–,16.6 µM (inactive),5.22 µM (inactive),2.71 µM (inactive),7.78 µM (inactive),2.54 µM (inactive)
CSc1ccc(/C=C2\CNC/C(=C\c3ccc(SC)cc3)C2=O)cc1,> 252 µM (inactive),> 237 µM (inactive),> 87.5 µM (inactive),> 371 µM (inactive),> 371 µM (inactive),> 170 µM (inactive),> 100 µM (inactive),36.8 µM (inactive),96.8 µM (inactive),84.5 µM (inactive),> 81.7 µM (inactive),40.6 µM (inactive),> 371 µM (inactive),> 206 µM (inactive),> 199 µM (inactive),41.9 µM (inactive),> 371 µM (inactive),–,> 371 µM (inactive),> 74.3 µM (inactive)
Clc1ccc(COC(Cn2ccnc2)c2ccc(Cl)cc2Cl)cc1 (configuration not stated) [ECONAZOLE NITRATE],3.41 µM (inactive),9.79 µM (inactive),9.86 µM (inactive),15.2 µM (inactive),9.68 µM (inactive),12.1 µM (inactive),11.9 µM (inactive),11.5 µM (inactive),19.7 µM (inactive),15.5 µM (inactive),12.2 µM (inactive),–,8.28 µM (inactive),13 µM (inactive),16.4 µM (inactive),11.4 µM (inactive),–,3.49 µM (inactive),5.42 µM (inactive),4.19 µM (inactive)
Cc1oc(N)c(S(=O)(=O)/C(C#N)=C/c2ccccc2[N+](=O)[O-])c1C,16.4 µM (inactive),25.2 µM (inactive),20.7 µM (inactive),17.5 µM (inactive),32.7 µM (inactive),33.7 µM (inactive),20.7 µM (inactive),21.4 µM (inactive),> 100 µM (inactive),31.1 µM (inactive),24.9 µM (inactive),58.3 µM (inactive),21.7 µM (inactive),18.5 µM (inactive),33.8 µM (inactive),50.2 µM (inactive),19.2 µM (inactive),14 µM (inactive),27 µM (inactive),–
O=C1C=Cc2c(I)sc(I)c21,15.8 µM (inactive),26.2 µM (inactive),28.8 µM (inactive),17.6 µM (inactive),19.4 µM (inactive),26.1 µM (inactive),24.9 µM (inactive),19.3 µM (inactive),89.7 µM (inactive),38.6 µM (inactive),15.9 µM (inactive),31.3 µM (inactive),19 µM (inactive),27 µM (inactive),14.5 µM (inactive),30.2 µM (inactive),74.5 µM (inactive),4 µM (inactive),18.1 µM (inactive),–
COc1ccc(C(=O)O[C@H]2CC[C@@]3(C)[C@@H]4CC[C@H]5[C@]6(O)C[C@H](O)[C@@]7(O)[C@@H](CN8C[C@@H](C)CC[C@H]8[C@@]7(C)O)[C@]6(O)C[C@@]53OC24O)cc1OC [VERATRIDINE],> 100 µM (inactive),> 100 µM (inactive),> 100 µM (inactive),> 100 µM (inactive),> 100 µM (inactive),> 100 µM (inactive),> 100 µM (inactive),> 100 µM (inactive),> 100 µM (inactive),> 100 µM (inactive),> 100 µM (inactive),44.3 µM (inactive),> 100 µM (inactive),> 100 µM (inactive),> 100 µM (inactive),> 100 µM (inactive),> 100 µM (inactive),74.8 µM (inactive),> 100 µM (inactive),–
